Inconclusive results and toxic doses are left out. Square brackets hold non-standard residues; d marks the D form. Peptide text beside a SMILES is read from it. * marks the point of attachment. ξ: configuration not given here. Tos = Cc1ccc(S(=O)(=O)*)cc1; ξY = NC(Cc1ccc(O)cc1)C(=O)O
Tested on: L1210 leukemia ip in BDF1 mice, survival T/C
Test: NCI In Vivo Anticancer Drug Screen. Data for tumor model L1210 Leukemia (intraperitoneal) in B6D2F1 (BDF1) mice
Conditions: endpoint: mean survival time, higher = longer survival
Summary of the method: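 Mice bearing the transplanted tumor received compound or vehicle. Survival of the treated group was divided by that of the vehicle-treated control group to give the ratio.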

[1] = dose: 100.0 mg/kg/injection, schedule: Q04DX003 (ip), vehicle: Klucel (hydroxypropylcellulose) (HPC)
[2] = dose: 200.0 mg/kg/injection, schedule: Q04DX003 (ip), vehicle: Klucel (hydroxypropylcellulose) (HPC)
[3] = dose: 100.0 mg/kg/injection, schedule: Q01DX009 (ip), vehicle: Klucel (hydroxypropylcellulose) (HPC)
[4] = dose: 200.0 mg/kg/injection, schedule: Q01DX009 (ip), vehicle: Klucel (hydroxypropylcellulose) (HPC)
[5] = dose: 400.0 mg/kg/injection, schedule: Q01DX009 (ip), vehicle: Klucel (hydroxypropylcellulose) (HPC)
[6] = dose: 400.0 mg/kg/injection, schedule: Q04DX003 (ip), vehicle: Klucel (hydroxypropylcellulose) (HPC)
[7] = dose: 100.0 mg/kg/injection, schedule: Q01DX009 (ip), vehicle: saline with Tween-80
[8] = dose: 200.0 mg/kg/injection, schedule: Q01DX009 (ip), vehicle: saline with Tween-80
[9] = dose: 100.0 mg/kg/injection, schedule: Q01DX001 (ip), vehicle: saline
[10] = dose: 200.0 mg/kg/injection, schedule: Q01DX001 (ip), vehicle: saline
[11] = dose: 400.0 mg/kg/injection, schedule: Q01DX001 (ip), vehicle: saline

SMILES: O=[N+]([O-])/C=C/c1ccccc1Cl
- T/C (dose: 5.0 mg/kg/injection, schedule: Q01DX009 (ip), vehicle: other): 98 % of control
- T/C (dose: 6.25 mg/kg/injection, schedule: Q01DX009 (ip), vehicle: saline with Tween-80): 100 % of control
- T/C (dose: 10.0 mg/kg/injection, schedule: Q01DX009 (ip), vehicle: other): 110 % of control
- T/C (dose: 12.5 mg/kg/injection, schedule: Q01DX009 (ip), vehicle: saline with Tween-80): 95 % of control
- T/C (dose: 15.0 mg/kg/injection, schedule: Q04DX003 (ip), vehicle: other): 114 % of control
- T/C (dose: 20.0 mg/kg/injection, schedule: Q01DX009 (ip), vehicle: other): 100 % of control
- T/C (dose: 25.0 mg/kg/injection, schedule: Q01DX009 (ip), vehicle: saline with Tween-80): 101 % of control
- T/C (dose: 30.0 mg/kg/injection, schedule: Q04DX003 (ip), vehicle: other): 104 % of control
- T/C (dose: 37.5 mg/kg/injection, schedule: Q01DX009 (sc), vehicle: olive oil, sesame oil, peanut oil): 94 % of control
- T/C (dose: 37.5 mg/kg/injection, schedule: Q04DX003 (ip), vehicle: Klucel (hydroxypropylcellulose) (HPC)): 101 % of control
- T/C (dose: 50.0 mg/kg/injection, schedule: Q01DX009 (ip), vehicle: saline with Tween-80): 96 % of control
- T/C (dose: 60.0 mg/kg/injection, schedule: Q04DX003 (ip), vehicle: other): 108 % of control
- T/C (dose: 75.0 mg/kg/injection, schedule: Q01DX001 (ip), vehicle: saline): 92 % of control
- T/C (dose: 75.0 mg/kg/injection, schedule: Q01DX009 (sc), vehicle: olive oil, sesame oil, peanut oil): 94 % of control
- T/C (dose: 75.0 mg/kg/injection, schedule: Q04DX003 (ip), vehicle: Klucel (hydroxypropylcellulose) (HPC)): 90 % of control
- T/C (dose: 150.0 mg/kg/injection, schedule: Q04DX003 (ip), vehicle: Klucel (hydroxypropylcellulose) (HPC)): 90 % of control

SMILES: COc1ccc2c(c1)CCC1C2=CCC2C(=O)CCC(=O)C21 (configuration not stated)
- T/C (dose: 50.0 mg/kg/injection, schedule: Q01DX001 (ip), vehicle: Klucel (hydroxypropylcellulose) (HPC)): 101 % of control
- T/C (dose: 100.0 mg/kg/injection, schedule: Q01DX001 (ip), vehicle: Klucel (hydroxypropylcellulose) (HPC)): 101 % of control
- T/C (dose: 200.0 mg/kg/injection, schedule: Q01DX001 (ip), vehicle: Klucel (hydroxypropylcellulose) (HPC)): 93 % of control

SMILES: O=[N+]([O-])c1cc(S(=O)(=O)F)cc(Cl)c1S
- T/C [1]: 98 % of control
- T/C [2]: 102 % of control

SMILES: CC12CCC(C1)C(C)(C)C2N1C(c2ccccc2)C1c1ccccc1 (configuration not stated)
- T/C [3]: 87 % of control
- T/C [4]: 87 % of control
- T/C [5]: 100 % of control

SMILES: COc1ccc2c(c1)CN(S(=O)(=O)c1ccc(C)cc1)CCC2O (configuration not stated)
- T/C [3]: 96 % of control
- T/C [1]: 96 % of control
- T/C [4]: 116 % of control
- T/C [2]: 114 % of control
- T/C [5]: 98 % of control
- T/C [6]: 96 % of control

SMILES: CCN(CCCl)Cc1ccc(-c2c3ccccc3cc3c2ccc2ccccc23)cc1
- T/C (dose: 78.0 mg/kg/injection, schedule: Q01DX001 (ip), vehicle: carboxymethylcellulose (CMC)): 90 % of control
- T/C (dose: 118.0 mg/kg/injection, schedule: Q01DX001 (ip), vehicle: carboxymethylcellulose (CMC)): 92 % of control
- T/C (dose: 177.0 mg/kg/injection, schedule: Q01DX001 (ip), vehicle: carboxymethylcellulose (CMC)): 95 % of control

SMILES: C/C(CCC(=O)O)=N\NC(=O)COc1ccc(Cl)cc1Cl
- T/C [1]: 94 % of control
- T/C [2]: 98 % of control

SMILES: CCOC(=O)Cn1c2ccccc2c2cc3c(C)nccc3c(C)c21
- T/C (dose: 4.69 mg/kg/injection, schedule: Q01DX009 (ip), vehicle: saline with Tween-80): 93 % of control
- T/C (dose: 9.37 mg/kg/injection, schedule: Q01DX009 (ip), vehicle: saline with Tween-80): 96 % of control
- T/C (dose: 9.37 mg/kg/injection, schedule: Q04DX003 (ip), vehicle: saline with Tween-80): 96 % of control
- T/C (dose: 18.75 mg/kg/injection, schedule: Q01DX009 (ip), vehicle: saline with Tween-80): 95 % of control
- T/C (dose: 18.75 mg/kg/injection, schedule: Q04DX003 (ip), vehicle: saline with Tween-80): 105 % of control
- T/C (dose: 37.5 mg/kg/injection, schedule: Q01DX009 (ip), vehicle: saline with Tween-80): 95 % of control
- T/C (dose: 37.5 mg/kg/injection, schedule: Q04DX003 (ip), vehicle: saline with Tween-80): 96 % of control
- T/C (dose: 75.0 mg/kg/injection, schedule: Q01DX009 (ip), vehicle: saline with Tween-80): 103 % of control
- T/C (dose: 75.0 mg/kg/injection, schedule: Q04DX003 (ip), vehicle: saline with Tween-80): 105 % of control
- T/C (dose: 150.0 mg/kg/injection, schedule: Q01DX009 (ip), vehicle: saline with Tween-80): 97 % of control
- T/C (dose: 150.0 mg/kg/injection, schedule: Q04DX003 (ip), vehicle: saline with Tween-80): 113 % of control

SMILES: COc1ccc(C(SCC(N)C(=O)O)(c2ccccc2)c2ccc(OC)cc2)cc1 (configuration not stated)
- T/C (dose: 3.13 mg/kg/injection, schedule: Q01DX009 (ip), vehicle: saline): 98 % of control
- T/C (dose: 6.25 mg/kg/injection, schedule: Q01DX009 (ip), vehicle: saline): 120 % of control
- T/C (dose: 6.3 mg/kg/injection, schedule: Q01DX009 (ip), vehicle: other): 110 % of control
- T/C (dose: 12.5 mg/kg/injection, schedule: Q01DX009 (ip), vehicle: other): 117 % of control
- T/C (dose: 25.0 mg/kg/injection, schedule: Q01DX009 (ip), vehicle: saline): 158 % of control
- T/C (dose: 50.0 mg/kg/injection, schedule: Q01DX009 (ip), vehicle: saline): 96 % of control

SMILES: Cc1ccc([N+](=O)[O-])cc1NC(=O)NCCc1ccccc1
- T/C [3]: 97 % of control
- T/C [4]: 87 % of control
- T/C [5]: 92 % of control

SMILES: CCCC(=O)Nc1ccc([N+](=O)[O-])cc1OC
- T/C [7]: 105 % of control
- T/C [8]: 94 % of control
- T/C (dose: 400.0 mg/kg/injection, schedule: Q01DX009 (ip), vehicle: saline with Tween-80): 94 % of control

SMILES: Nc1ccn(C2SC(CO)C(O)C2O)c(=O)n1 (configuration not stated)
- T/C (dose: 50.0 mg/kg/injection, schedule: Q01DX001 (ip), vehicle: saline): 100 % of control
- T/C [9]: 105 % of control
- T/C [10]: 100 % of control
- T/C [11]: 92 % of control

SMILES: O=C(O)C/C=C/C(=O)NCc1cccnc1
- T/C [9]: 97 % of control
- T/C [10]: 97 % of control
- T/C [11]: 88 % of control

SMILES: COC(=O)c1ccc(OC(C)OCCCl)cc1 (configuration not stated)
- T/C (dose: 100.0 mg/kg/injection, schedule: Q04DX002 (ip), vehicle: saline): 93 % of control
- T/C (dose: 200.0 mg/kg/injection, schedule: Q04DX002 (ip), vehicle: saline): 96 % of control
- T/C (dose: 400.0 mg/kg/injection, schedule: Q04DX002 (ip), vehicle: saline): 96 % of control

SMILES: O=C1c2ccccc2C(=O)N1CNc1cccc(Cl)c1
- T/C [7]: 88 % of control
- T/C (dose: 100.0 mg/kg/injection, schedule: Q04DX002 (ip), vehicle: saline with Tween-80): 102 % of control
- T/C [8]: 91 % of control
- T/C (dose: 200.0 mg/kg/injection, schedule: Q04DX002 (ip), vehicle: saline with Tween-80): 105 % of control
- T/C (dose: 400.0 mg/kg/injection, schedule: Q04DX002 (ip), vehicle: saline with Tween-80): 97 % of control

SMILES: NC(CS(=O)c1ccc([N+](=O)[O-])cc1Cl)C(=O)O (configuration not stated)
- T/C (dose: 100.0 mg/kg/injection, schedule: Q04DX003 (ip), vehicle: saline with Tween-80): 103 % of control
- T/C (dose: 200.0 mg/kg/injection, schedule: Q04DX003 (ip), vehicle: saline with Tween-80): 95 % of control
- T/C (dose: 400.0 mg/kg/injection, schedule: Q04DX003 (ip), vehicle: saline with Tween-80): 101 % of control

SMILES: Cc1ccc(S(=O)(=O)NCC(=O)NC(Cc2ccc(O)cc2)C(=O)O)cc1 (stereo not drawn) (Tos-Gly-[ξY]-OH)
- T/C (dose: 100.0 mg/kg/injection, schedule: Q01DX009 (ip), vehicle: other): 105 % of control
- T/C (dose: 200.0 mg/kg/injection, schedule: Q01DX009 (ip), vehicle: other): 102 % of control
- T/C (dose: 400.0 mg/kg/injection, schedule: Q01DX009 (ip), vehicle: other): 104 % of control

SMILES: CCOC(=O)c1cnc(SC)nc1N1CCOCC1
- T/C [1]: 98 % of control
- T/C [2]: 93 % of control
- T/C [6]: 100 % of control

— PubChem BioAssay AID248 (DTP/NCI, 2004)
